# Tested on: HeLa
# Assay: Cytotoxicity against human HeLa S3 cells
# Assay type: functional, cell-based
row,Compound,IC50 [µg/mL]
1,CC/C=C(\C)[C@H]1OC(=O)[C@H](C)N(C)C(=O)[C@@H](C(C)C)NC(=O)CN(C)C(=O)[C@@H](CC(C)C)N(C)C(=O)[C@H](C(C)C)NC(=O)[C@@H]([C@@H](C)CC)OC(=O)/C(C)=C/C[C@H](O)[C@@H]1C,> 4
2,CC/C=C(\C)[C@H]1OC(=O)[C@H](C)N(C)C(=O)[C@H](C(C)C)NC(=O)CN(C)C(=O)[C@@H](CC(C)C)N(C)C(=O)[C@H](CCCCNC(=O)OC(C)(C)C)NC(=O)[C@@H]([C@@H](C)CC)OC(=O)/C(C)=C/C[C@H](O)[C@@H]1C,0.032
3,CC/C=C(\C)[C@H]1OC(=O)[C@H](C)N(C)C(=O)[C@H](C(C)C)NC(=O)CN(C)C(=O)[C@@H](CC(C)C)N(C)C(=O)[C@H](C(C)C)NC(=O)[C@@H]([C@@H](C)CC)OC(=O)/C(C)=C/C[C@H](OC(=O)CCCCCNC(=O)OCC2c3ccccc3-c3ccccc32)[C@@H]1C,0.42
4,CC/C=C(\C)[C@H]1OC(=O)[C@H](C)N(C)C(=O)[C@H](CCCCNC(=O)OC(C)(C)C)NC(=O)CN(C)C(=O)[C@@H](CC(C)C)N(C)C(=O)[C@H](C(C)C)NC(=O)[C@@H]([C@@H](C)CC)OC(=O)/C(C)=C/C[C@H](O)[C@@H]1C,0.26
5,CC/C=C(\C)[C@H]1OC(=O)[C@H](CCCCNC(=O)OC(C)(C)C)N(C)C(=O)[C@H](C(C)C)NC(=O)CN(C)C(=O)[C@@H](CC(C)C)N(C)C(=O)[C@H](C(C)C)NC(=O)[C@@H]([C@@H](C)CC)OC(=O)/C(C)=C/C[C@H](O)[C@@H]1C,0.02
6,CC/C=C(\C)[C@H]1OC(=O)[C@H](C)N(C)C(=O)[C@H](C(C)C)NC(=O)CN(C)C(=O)[C@@H](CC(C)C)N(C)C(=O)[C@H](C(C)C)NC(=O)[C@@H]([C@@H](C)CC)OC(=O)/C(C)=C/C[C@H](OC(=O)CCCCCNC(=O)CCC(=O)O)[C@@H]1C,0.14
7,CC/C=C(\C)[C@H]1OC(=O)[C@H](C)N(C)C(=O)[C@@H](C(C)C)NC(=O)CN(C)C(=O)[C@@H](CC(C)C)N(C)C(=O)[C@H](C(C)C)NC(=O)[C@@H]([C@@H](C)CC)OC(=O)/C(C)=C/C[C@H](OC(=O)CCCCCNC(=O)CCC(=O)O)[C@@H]1C,> 10
8,CC/C=C(\C)[C@H]1OC(=O)[C@H](C)N(C)C(=O)[C@H](C(C)C)NC(=O)CN(C)C(=O)[C@@H](CC(C)C)N(C)C(=O)[C@H](C(C)C)NC(=O)[C@@H]([C@@H](C)CC)OC(=O)/C(C)=C/C[C@H](O)[C@@H]1C [AURILIDE],0.0024
9,CC/C=C(\C)[C@H]1OC(=O)[C@H](C)N(C)C(=O)[C@H](C(C)C)NC(=O)CN(C)C(=O)[C@@H](CC(C)C)N(C)C(=O)[C@H](C(C)C)NC(=O)[C@@H]([C@@H](C)CC)OC(=O)/C(C)=C/CC[C@@H]1C [DEOXYAURILIDE],0.017
